Measured values as given in patent US20140135396A1, “Treatment of Acetaminophen-Induced Liver Damage by the Administration of Modulators of Nitric Oxide” (BETH ISRAEL DEACONESS MEDICAL CENTER, INC., priority 2011, published 2014).
“Also recorded” adds a separate entry of the source.

Key:
[1] = tested on: zebrafish embryos; test: Liver size in zebrafish embryos (lfabp in situ hybridization, lfabp:GFP); type: in vivo; settings: for liver size: other NO donors at optimal doses, alternative NOS inhibitor, inactive enantiomer, dose series; for liver size (in situ hybridization for lfabp and transferrin): 10 μM, exposure 24-72 hpf
Description: In order to identify regulators of liver formation a chemical genetic screen was conducted. Several of the chemicals identified by the screen were known to impact on NO signaling. Based on these initial observations, well-established modulators of NO signaling were secondarily screened for effects on liver formation. […] The contrasting effects of L-Arg and L-NAME on liver formation were confirmed by in vivo fluorescent microscopy of lfabp:GFP transgenic zebrafish. To quantify the phenotypic changes caused by NO signaling, the liver size (region of lfabp expression) of treated embryos were scored as large, medium or small. […]
To further characterize the role of NO signaling on liver formation, we studied the temporal requirements for NO signaling. Embryos were exposed to Deta (10 μM), L-Arg (10 μM) or L-NAME (10 μM) from 24-48 or 48-72 hpf at which point liver size was assessed. […] Exposure of embryos to L-Arg (10 μM) caused a subtle yet significant increase in the hepatic bud size at 36 hpf (region of hhex expression) in 26% of embryos, whereas L-NAME diminished hepatic bud size in 33% of embryos. […]

[2] = tested on: zebrafish embryos; test: Survival of zebrafish embryos exposed to a lethal dose of APAP; type: in vivo; settings: for survival: GSNORi 1 μM, NAC 10 μM; for survival compared to APAP alone: co-exposure 5 μM
Description: Having found a hepatoprotective effect of GSNORi in embryos exposed to a sublethal dose of APAP, we next examined whether GSNORi was able to enhance survival in embryos exposed to a lethal dose of APAP (10 mM).

[3] = tested on: adult zebrafish; test: APAP-induced liver injury in adult zebrafish; type: in vivo; settings: for hepatic glutathione (GSH) / liver histology / overall survival compared to APAP alone: APAP 10 mM; for hepatic glutathione (GSH) / liver histology: GSNORi 1 μM and/or NAC 10 μM; for overall survival compared to APAP alone: adults, Deta 5 μM, GSNO 5 μM
Description: Having shown that GSNORi was hepatoprotective in APAP exposed larvae, we wanted to examine whether GSNORi remained effective in adult zebrafish. To visualise the hepatoprotective properties of GSNORi in vivo, adult casper lfabp:GFP transgenic fish were exposed to APAP (10 mM) in the presence or absence of GSNORi (1 μM) for 24 hr and examined 72 hpe by fluorescence microscopy. […] To gain a greater understanding of the hepatoprotective potential of GSNORi, survival studies were conducted in which adults were exposed to APAP (10 mM) in the presence or absence of GSNORi (1 μM) for 24 hr, followed by a 2-day recovery period in fresh water. […] The differences in survival were reflected in circulating ALT levels, which are used clinically to assess liver toxicity; peaking at 24 hpe with 196 U/L in APAP (10 mM) exposed fish and 55 U/L for fish exposed to APAP with GSNORi (1 μM).
Given that treatments for APAP-induced liver injury are provided after a considerable delay in the clinical setting, we wanted to determine whether GSNORi would remain hepatoprotective when treatment was delayed. In addition, we wanted to ascertain whether GSNORi could synergize with the clinical antidote NAC and extend the therapeutic window.

[4] = tested on: lfabp:GFP embryos; test: APAP-induced liver injury in zebrafish larvae, sub-lethal dose (liver size, BrdU); type: in vivo; settings: for liver size: APAP 5 mM 48-60 hpf, treatment in recovery phase 60-96 hpf, L-NAME 10 μM, NAC 10 μM, GSNORi 1 μM; for liver size and survival after APAP exposure: summary, embryos and adults, co-exposure; for liver size / hepatoprotection: co-exposure model: APAP 5 mM concurrently with treatment 48-96 hpf, Deta 5 μM
Description: In order to examine the possible hepatoprotective effect of GSNORi in the context of acetaminophen (APAP) induced liver injury. Transgenic lfabp:GFP embryos were exposed to a sub-lethal dose of APAP (5 mM) from 48 to 60 hpf followed by treatment during the recovery phase (60-96 hpf) with L-NAME, GSNORi and/or NAC. […] In order to further investigate the proliferative effect of treatments following APAP induced liver injury, we examined BrdU incorporation during the recovery phase.

[5] = tested on: zebrafish embryos; test: Hepatic bud size in zebrafish embryos (hhex, foxA3, sid4 expression); type: in vivo
Description: To further characterize the role of NO signaling on liver formation, we studied the temporal requirements for NO signaling. Embryos were exposed to Deta (10 μM), L-Arg (10 μM) or L-NAME (10 μM) from 24-48 or 48-72 hpf at which point liver size was assessed. […] Exposure of embryos to L-Arg (10 μM) caused a subtle yet significant increase in the hepatic bud size at 36 hpf (region of hhex expression) in 26% of embryos, whereas L-NAME diminished hepatic bud size in 33% of embryos.
The expression pattern of an alternate hepatic progenitor marker prox1 corroborated that chemical modulators of NO signaling alter the size of the developing hepatic bud. […] These findings were verified by qPCR for hhex and foxA3.

[6] = tested on: zebrafish embryos; test: Effect on organs other than the liver in zebrafish embryos (in situ hybridization); type: in vivo; settings: 10 μM, 18 hpf until 72 hpf
Description: These findings were corroborated by qPCR for lfabp.
In order to examine the effect that NO signaling had on other endodermal organs including the pancreas and gut, embryos were exposed to Deta (10 μM) or L-NAME (10 μM) from 18 hpf until 72 hpf. Endodermal derived tissue, the exocrine pancreas and gut were stained by in situ hybridization for foxa3, trypsin and ifabp, respectively.

[7] = tested on: zebrafish embryos; test: Chemical genetic screen for effects on liver development in zebrafish embryos; type: in vivo; settings: lfabp:GFP fluorescence and lfabp in situ hybridization at 72 hpf
Description: The liver arises from anterior endodermal progenitor cells. Liver development can be divided into three stages, specification (18-24 hours post fertilization, hpf), budding/differentiation (24-72 hpf), and hepatic outgrowth (72-96 hpf). The various stages of liver development can be observed in the embryo by in situ hybridization for hhex (endodermal progenitors), foxA3 (differentiated endoderm) and liver fatty acid binding protein (lfabp, marker of hepatocytes).
In an effort to identify novel regulators of liver formation and homeostasis, a library of 2880 biologically active compounds (obtained from the ICCB at Harvard Medical School) was previously screened for global effects on liver development in zebrafish. Hepatogenesis was assessed in vivo using fluorescent reporter fish where the hepatocyte-specific lfabp promoter drives GFP expression. All embryos were imaged with fluorescence microscopy at 72 hpf, then fixed and subjected to in situ hybridization for lfabp to confirm the in vivo findings. Of the chemical treatments, 191 compounds (6.6%) increased, and 344 (11%) decreased liver formation.

[8] = tested on: cloche embryos; test: Liver size in cloche mutant embryos lacking vasculature; type: in vivo, zebrafish; settings: for liver size in cloche embryos: summary statement
From the text: NO signaling can occur via 2 distinct mechanisms namely, cGMP-dependent vasodilation and S-nitrosylation pathways. In order to clarify the importance of the well-known vascular effects of NO, we examined the effect of chemical modulators of NO signaling in cloche mutants that have no endothelial cells and therefore lack any vasculature.

[9] = tested on: zebrafish embryos; test: Hepatic progenitor proliferation in zebrafish embryos (BrdU incorporation, pH3 staining); type: in vivo; settings: for BrdU incorporation (BrdU positive cells): developing hepatic bud; for staining for the mitotic marker pH3: treated embryos
[10] = tested on: lfabp:GFP embryos; test: Flow cytometric analysis of GFP+ hepatocytes in lfabp:GFP embryos; settings: GFP+ cells, compared to control
From the text: S-nitrosoglutathione reductase (GSNOR) is the major enzyme responsible for metabolizing S-nitrosothiols and is therefore a key negative regulator of S-nitrosylation pathways. We reasoned that by inhibiting GSNOR function we could stimulate S-nitrosothiol signaling and modulate liver formation.

[11] = tested on: Zebrafish; test: Liver regeneration after 1/3 partial hepatectomy in zebrafish; type: in vivo; settings: 10 μM
From the text: In order to determine whether the hepatoprotective and pro-regenerative effect of GSNOR inhibition was limited to APAP-induced liver injury, we determined the impact of exposure to GSNORi after ⅓ partial hepatectomy.

[12] = tested on: NO production; test: NO production in vivo with fluorescent probe Cu(2)(FL2E); design: species or system zebrafish; settings: cell-trappable fluorescent probe Cu(2)(FL2E)
[13] = tested on: WT mice; test: APAP-induced liver injury in WT mice treated with GSNORi and/or NAC; type: in vivo; settings: APAP 300 mg/kg, treatment 2 hrs later, GSNORi 5 mg/kg, NAC 300 mg/kg
Description: To investigate this possibility, WT mice were injected with a sub-lethal dose of APAP (300 mg/kg) followed 2 hrs later by treatment with GSNORi (5 mg/kg) and/or NAC (300 mg/kg). Mice were sacrificed at 6 or 24 hr.

[14] = APAP 10 mM 48-96 hpf, co-exposure
[15] = APAP 10 mM for 18 hr followed by delayed treatment, GSNORi 1 μM, NAC 10 μM

CC(=O)NC(C(=O)O)C(C)(C)SN=O (racemic) [SNAP, S-Nitroso-N-Acetyl-D,L-Penicillamine]
liver size [1]: increase liver size

CC(=O)Nc1ccc(O)cc1 [APAP, N-acetyl-p-aminophenol]
survival [2, 14]: 4%
circulating ALT ([3]; 24 hpe, APAP 10 mM ± GSNORi 1 μM): 196 U/L
survival by 72 hpe [3, 15]: 57%
survival by 72 hpe ([3]; APAP 10 mM ± GSNORi 1 μM for 24 hr, 2-day recovery in fresh water): 39%
hepatic glutathione (GSH) [3]: dramatic reduction in hepatic glutathione (GSH)
liver histology [3]: hepatocyte necrosis and hemorrhaging
GFP fluorescence (fluorescence microscopy) ([3]; adult casper lfabp:GFP fish, APAP 10 mM ± GSNORi 1 μM for 24 hr, examined 72 hpe): reduction in GFP fluorescence
liver size [4]: dramatic decrease in liver size
liver size and survival after APAP exposure [4]: decrease in liver size and death

N=C(N)NCCC[C@@H](N)C(=O)O [D-Arg, D-Arginine]
liver size [1]: no effect on liver size

NCCN(CCN)/[N+]([O-])=N/O [Deta, Diethylenetriamine-NONOate]
liver size [1]: increase liver size
region of hhex and foxA3 expression in the developing hepatic bud ([5]; 10 μM): increasing the region of hhex and foxA3 expression
size of other endodermal organs (foxa3, trypsin, ifabp) [6]: did not observably affect the size of other endodermal organs
survival compared to APAP alone ([2]; APAP 10 mM): increased survival
overall survival compared to APAP alone [3]: enhanced overall survival
liver size / hepatoprotection [4]: protected the liver
liver size [7]: increase in liver size

N[C@@H](CCC(=O)N[C@@H](CSN=O)C(=O)NCC(=O)O)C(=O)O [GSNO, S-nitrosoglutathione]
embryos with enhanced liver size ([1]; GSNO 5 μM): 40%
survival compared to APAP alone ([2]; APAP 10 mM): increased survival
overall survival compared to APAP alone [3]: enhanced overall survival
embryos with increased liver size ([8]; cloche mutants, GSNO 5 μM): 46%
liver size in cloche embryos [8]: able to modulate liver size

N=C(N)NCCC[C@H](N)C(=O)O [L-Arg, L-Arginine]
liver size (in situ hybridization for lfabp and transferrin) [1]: dramatic increase in liver size
embryos with a large liver ([1]; L-Arg 10 μM, 24-72 hpf, liver size scored large, medium or small): approximately 51%
embryos with increase in hepatic bud size (region of hhex expression) ([5]; L-Arg 10 μM, 36 hpf): 26%
embryos with increased hepatic bud size (foxA3 expression) ([5]; L-Arg, 48 hpf): 51%
BrdU incorporation (BrdU positive cells) [9]: increase in BrdU positive cells
staining for the mitotic marker pH3 [9]: increased hepatic proliferation
hepatocytes per embryo [10]: increase in hepatocytes per embryo
embryos with increased liver size ([8]; cloche mutants, L-Arg 10 μM): 37%
liver size [7]: increase in liver size

COC(=O)[C@@H](N)CCCNC(=N)N[N+](=O)[O-] [L-NAME, L-N^G-Nitroarginine methyl ester]
liver size (in situ hybridization for lfabp and transferrin) [1]: decrease in liver size
embryos with diminished liver size ([1]; L-NAME 10 μM, 24-72 hpf): 62%
embryos with diminished hepatic bud size (hhex) ([5]; L-NAME, 36 hpf): 33%
embryos with restricted hepatic bud size (foxA3 expression) ([5]; L-NAME, 48 hpf): 60%
regenerative activity [11]: complete cessation of regenerative activity
size of other endodermal organs (foxa3, trypsin, ifabp) [6]: did not observably affect the size of other endodermal organs
NO in the developing endoderm [12]: inhibited
overall survival compared to APAP alone [3]: exacerbated the loss in survival
BrdU incorporation (BrdU positive cells) [9]: reduced the number of BrdU positive cells
staining for the mitotic marker pH3 [9]: inhibited cell cycle progression
hepatocytes per embryo [10]: decrease
embryos with a small liver ([8]; cloche mutants, L-NAME 10 μM): 40%
liver size in cloche embryos [8]: able to modulate liver size
liver size [4]: exacerbated
liver size / hepatoprotection [4]: exacerbated injury
liver size and survival after APAP exposure [4]: further decrease in liver size and more extensive loss in survival
liver size [7]: smaller livers; also recorded: small liver

CC(=O)N[C@@H](CS)C(=O)O [NAC, N-acetylcysteine]
survival [2, 14]: 32%
survival ([2]; APAP 10 mM, treatment given after a 12 hr delay): 15%
circulating ALT, % of the level of APAP alone [13]: 43%
histological evaluation of centrilobular necrosis ([13]; 6 and 24 hr): effective in preventing liver necrosis
survival by 72 hpe [3, 15]: 80%
hepatic glutathione (GSH) [3]: modulated
liver histology [3]: alleviated
cell proliferation (PCNA immunohistochemistry) ([3]; following APAP injury): modulated liver regeneration

NG-amino-L-Arginine [L-NMMA]
liver size [1]: decrease liver size in a dose-dependent manner
